In one test the test system is splenocytes. The experiment in a line: AcP-IgAN model: T cell proliferation analysis (thymidine uptake). Format: in vivo, B cell-deficient mice. How it is done:
(§1) B cell-deficient mice (B6.129S2-Igh-6tm1Cgn/J) were obtained from the Academia Sinica (Professor John T. Kung, Institute of Molecular Biology), and maintained at the animal center of the National Defense Medical Center, Taipei, Taiwan. AcP-IgAN was induced in the mice by daily injection of purified IgA anti-phosphorylcholine antibodies and pneumococcal C-polysaccharide (PnC) as described previously (Chao, et al., Kidney Int. 70:283-297; 2006). All animal experiments were performed with the approval of the Institutional Animal Care and Use Committee of The National Defense Medical Center, Taiwan, and were consistent with the NIH Guide for the Care and Use of Laboratory Animals.
Splenocytes from the mice were prepared as described as above, then were cultured in triplicate in wells (5×10^5 cells in 200 μl/well) in 96-well flat-bottomed microtiter plates previously coated overnight at 4° C. with 0.25 μg/ml of anti-mouse CD3 antibody (BD Biosciences). After 48 hr, the cultures were pulsed with 1 μCi of 3H-methyl thymidine (Amersham Pharmacia Biotech, NJ), harvested 16 hr later, and the incorporated 3H-methyl thymidine measured using a TopCount (Packard, PerkinElmer, MA).

The test system of the next test is Nrf2. The experiment in a line: AcP-IgAN model: renal Nrf2 mRNA and protein. The settings on record: AcP-IgAN mice, day 3 until day 28, vs control AcP-IgAN mice. The format is in vivo, B cell-deficient mice. How it is done:
as §1
Nuclear proteins were extracted using a nuclear extract kit (Active Motif, Japan). Phospho-NF-κB p65 and nuclear factor-erythroid-2-related factor 2 (NrF2) were measured in renal tissue nuclear protein extracts using Trans-AM ELISA assay kits (Active Motif), according to the manufacturer's instructions. Renal cytosolic protein extracts using RIPA buffer (Cell signaling). Cytosolic glutathione peroxidase (GPx) (Cayman, Mich.) and cytosolic heme oxygenase-1 (HO-1) (Enzo Life Sciences, NY) were measured using commercial ELISA kits according to the manufacturer's instructions. Both were expressed relative to the protein concentration in the lysate. […]

The subject of test [1] is IL-6. As to the kind of experiment: AcP-IgAN model: serum IL-6 ELISA. Format: in vivo, B cell-deficient mice. The settings on record: AcP-IgAN mice. The procedure: as §1
Serum levels of IL-1β (eBiosceience, CA), IL-6 (eBiosceience), IL-18 (MBL, Japan), and MCP-1 (eBiosceience) were measured using commercial ELISA kits according to the manufacturer's instructions.
Background: An ELISA detects its analyte on a solid surface through an enzyme-linked reagent.

The subject of another test is TGF-β1. As to the kind of experiment: FSGS model: TGF-β1 in serum and kidney (ELISA, IHC). Format: in vivo, BALB/c mice. The settings on record: FSGS mice. The procedure: Experiments described herein were performed on 8-week-old female BALB/c mice. The FSGS mice were injected intravenously with a single dose of adriamycin (0.1 mg/10 g body weight). The mice were given Compound 1 six hours before adriamycin injection by gavage daily till sacrifice. BALB/c mice intraperitoneal injected with normal saline were used as normal controls, while ASLN mice given vehicle (corn oil) by gavage were used as disease controls. Mice were killed at day 7, 14, or 21 after disease induction, and spleen, renal cortical tissue, and blood samples collected and stored appropriately until analysis. All animal experiments were performed with the ethical approval of the Institutional Animal Care and Use Committee of The National Defense Medical Center, Taiwan and performed according to the ethical rules in the NIH Guide for the Care and Use of Laboratory Animals.
For IHC, formalin-fixed and paraffin-embedded renal sections were prepared and incubated with primary antibodies against mouse Desmin (Lab Vision, CA, USA), CD3 (pan-T cell; Serotec, N.C., USA), F4/80 (monocytes/macrophages; Serotec), IL-6 (R&D Systems, MN, USA), NF-κB p65 (Cell Signaling Technology, MA, USA), collagen I, III, and IV (Southern Biotech, AL, USA), or TGF-β1 (Santa Cruz Biotechnology, CA, USA), biotinylated second antibodies (Dako, Glostrup, Denmark), and avidin-biotin-peroxidase complex (Dako). Semi-quantitative evaluation of staining was performed.
The TGF-β1 protein levels in serum and renal tissue were measured using the commercial ELISA kits (R&D Systems), according to the manufacturer's instructions. Samples were acidified with 1 N HCl and neutralized with 1.2 N NaOH/0.5 M HEPES to assay for the amount of TGF-β1.

In test [2] the test system is IL-6. As to the kind of experiment: AcP-IgAN model: renal IL-6 mRNA and protein. Format: in vivo, B cell-deficient mice. The note with it: AcP-IgAN mice. How it is done:
as §1
For IHC, formalin fixed and paraffin embedded tissue sections or frozen sections were incubated with against IL-6 (R&D Systems, MN), MCP-1 (Santa Cruz, Calif.), F4/80 (monocytes/macrophages; Serotec, N.C.), collagen IV (Southern Biotech, AL), TGF-β1 (Santa Cruz), phopsho-NFκB p65 (Cell Signaling, MA), CD3 (pan-T cell; Serotec), CD4 (T helper cell; BioLegend, CA), CD8 (cytotoxic T cell), CD11b (macrophages/neutrophils), or CD11c (dendritic cells) (BD Biosciences, CA) antibodies. The FITC-conjugated, Alexa Fluor 488-conjugated (Invitrogen, CA) or horseradish peroxidase (HRP) conjugated secondary antibodies (DAKO, Denmark) were then applied to the sections. Hematoxylin or 4′,6-diamidino-2-phenylindole (DAKO) was used in the counter staining for nuclei.
(§2) Total cortical kidney RNA was extracted with TriZOL reagents (Invitrogen) from cortical tissue of the kidney. For first-strand cDNA synthesis, 1.5 μg of total RNA was used in a single-round reverse transcriptase reaction. The reaction mixture consisted of 0.9 μl of Oligo (dT) 12 to 18 primer, 1.0 mM deoxyribonucleotide triphosphate (dNTP), 1 μl first strand buffer, 0.4 mM dithiothreitol, 80 U of RNaseout recombinant ribonuclease inhibitor, and 300 U of superscript II RNase H (Invitrogen). Real-time PCR was performed on an ABI Prism 7700 Sequence Detection System (Applied Biosystems, CA). […]

In the next test the test system is IL-1beta. The experiment in a line: AcP-IgAN model: renal IL-1beta mRNA. The format is in vivo, B cell-deficient mice. How it is done: as §1
as §2, with “CA). All of the probes and primers were Assays-on-Demand Gene expression products (Applied Biosystems).” for “CA).”

Setting [3] is: day 28, vs control AcP-IgAN mice.
The mark [4] stands for this setting: day 14 and day 21, vs control FSGS mice.

Take `COC1=C(OC)[C@H](O)[C@H](C/C=C(\C)CC/C=C(\C)CCC=C(C)C)[C@@H](C)C1=O` [Compound 1, Antroquinonol]: the “proliferation of CD3^+ T cell in splenocytes (thymidine uptake)” value in the test with splenocytes (AcP-IgAN mice, day 28) is “near baseline levels of proliferation”. Besides, the “proliferation of CD3^+ T cell in splenocytes (thymidine uptake)” value with splenocytes (day 3, worded as control AcP-IgAN mice relative to AcP-IgAN+Antroq mice) is given as “greatly increased proliferation of CD3^+ T cell in splenocytes compared to that of AcP-IgAN+Antroq mice”. Besides, in the test on Nrf2, the “renal expression levels of mRNA of Nrf2” value is on record as “greatly increased” and the “renal expression levels of protein of Nrf2” value was “greatly increased”. Further, in the test with IL-6 [1] (day 3, between control AcP-IgAN, AcP-IgAN+Antroq and normal control mice), the “serum IL-6 levels” value was “no difference”. Further, the “serum levels of IL-6” value with IL-6 [1] (setting [3]) was “substantially decreased”. Also, in the test with TGF-β1 (setting [4]), the “TGF-β1 protein levels in kidney (ELISA)” value is on record as “greatly abrogated” and the “TGF-β1 protein levels in serum (ELISA)” value was “greatly abrogated”. The “TGF-β1 protein expression in the kidney (IHC)” value in the test with TGF-β1 (vs control FSGS mice) was “significantly lower”. Also, in the test with IL-6 [2] (day 3), the “renal expression levels of mRNA and protein of IL-6” value is given as “no such effect”. In the test with IL-6 [2] (setting [3]), the “renal expression levels of mRNA of IL-6” value is given as “significantly reduced” and the “renal expression levels of protein of IL-6” value is “significantly reduced”. The “renal mRNA levels of IL-1beta (elevation)” value in the test on IL-1beta (AcP-IgAN mice, day 28, vs control AcP-IgAN mice) is on record as “significantly inhibited”. Moreover, the “renal IL-1beta mRNA expression” value in the test with IL-1beta (all mice, day 3) was “no detectable increase”.

For the origin of these results see patent US10406120B2, “Methods and compositions for treating kidney disorders” (Golden Biotechnology Corporation, priority 2013, dated 2019).
